Positions of bridges follow the written chain, without caps; N, C: chain ends. Non-standard residues stand in square brackets, D forms with d. Residues, ends and D or L forms follow the SMILES beside them. Trp(1-Me) = Cn1cc(C[C@H](N)C(=O)O)c2ccccc21; 1Nal = N[C@@H](Cc1cccc2ccccc12)C(=O)O
Legend:
Assay in all cases: cell-based
hNav1.7 = hNav1.7 (Homo sapiens, UniProt Q15858); settings: Nav1.7 Use IC50
hNav1.5 = hNav1.5 (Homo sapiens, UniProt Q14524)
hNav1.3 = hNav1.3 (Homo sapiens, UniProt Q9NY46); format: cell-based; settings: Nav1.3 Use IC50
Sequence of hNav1.3 (Q9NY46 whole entry, looked up): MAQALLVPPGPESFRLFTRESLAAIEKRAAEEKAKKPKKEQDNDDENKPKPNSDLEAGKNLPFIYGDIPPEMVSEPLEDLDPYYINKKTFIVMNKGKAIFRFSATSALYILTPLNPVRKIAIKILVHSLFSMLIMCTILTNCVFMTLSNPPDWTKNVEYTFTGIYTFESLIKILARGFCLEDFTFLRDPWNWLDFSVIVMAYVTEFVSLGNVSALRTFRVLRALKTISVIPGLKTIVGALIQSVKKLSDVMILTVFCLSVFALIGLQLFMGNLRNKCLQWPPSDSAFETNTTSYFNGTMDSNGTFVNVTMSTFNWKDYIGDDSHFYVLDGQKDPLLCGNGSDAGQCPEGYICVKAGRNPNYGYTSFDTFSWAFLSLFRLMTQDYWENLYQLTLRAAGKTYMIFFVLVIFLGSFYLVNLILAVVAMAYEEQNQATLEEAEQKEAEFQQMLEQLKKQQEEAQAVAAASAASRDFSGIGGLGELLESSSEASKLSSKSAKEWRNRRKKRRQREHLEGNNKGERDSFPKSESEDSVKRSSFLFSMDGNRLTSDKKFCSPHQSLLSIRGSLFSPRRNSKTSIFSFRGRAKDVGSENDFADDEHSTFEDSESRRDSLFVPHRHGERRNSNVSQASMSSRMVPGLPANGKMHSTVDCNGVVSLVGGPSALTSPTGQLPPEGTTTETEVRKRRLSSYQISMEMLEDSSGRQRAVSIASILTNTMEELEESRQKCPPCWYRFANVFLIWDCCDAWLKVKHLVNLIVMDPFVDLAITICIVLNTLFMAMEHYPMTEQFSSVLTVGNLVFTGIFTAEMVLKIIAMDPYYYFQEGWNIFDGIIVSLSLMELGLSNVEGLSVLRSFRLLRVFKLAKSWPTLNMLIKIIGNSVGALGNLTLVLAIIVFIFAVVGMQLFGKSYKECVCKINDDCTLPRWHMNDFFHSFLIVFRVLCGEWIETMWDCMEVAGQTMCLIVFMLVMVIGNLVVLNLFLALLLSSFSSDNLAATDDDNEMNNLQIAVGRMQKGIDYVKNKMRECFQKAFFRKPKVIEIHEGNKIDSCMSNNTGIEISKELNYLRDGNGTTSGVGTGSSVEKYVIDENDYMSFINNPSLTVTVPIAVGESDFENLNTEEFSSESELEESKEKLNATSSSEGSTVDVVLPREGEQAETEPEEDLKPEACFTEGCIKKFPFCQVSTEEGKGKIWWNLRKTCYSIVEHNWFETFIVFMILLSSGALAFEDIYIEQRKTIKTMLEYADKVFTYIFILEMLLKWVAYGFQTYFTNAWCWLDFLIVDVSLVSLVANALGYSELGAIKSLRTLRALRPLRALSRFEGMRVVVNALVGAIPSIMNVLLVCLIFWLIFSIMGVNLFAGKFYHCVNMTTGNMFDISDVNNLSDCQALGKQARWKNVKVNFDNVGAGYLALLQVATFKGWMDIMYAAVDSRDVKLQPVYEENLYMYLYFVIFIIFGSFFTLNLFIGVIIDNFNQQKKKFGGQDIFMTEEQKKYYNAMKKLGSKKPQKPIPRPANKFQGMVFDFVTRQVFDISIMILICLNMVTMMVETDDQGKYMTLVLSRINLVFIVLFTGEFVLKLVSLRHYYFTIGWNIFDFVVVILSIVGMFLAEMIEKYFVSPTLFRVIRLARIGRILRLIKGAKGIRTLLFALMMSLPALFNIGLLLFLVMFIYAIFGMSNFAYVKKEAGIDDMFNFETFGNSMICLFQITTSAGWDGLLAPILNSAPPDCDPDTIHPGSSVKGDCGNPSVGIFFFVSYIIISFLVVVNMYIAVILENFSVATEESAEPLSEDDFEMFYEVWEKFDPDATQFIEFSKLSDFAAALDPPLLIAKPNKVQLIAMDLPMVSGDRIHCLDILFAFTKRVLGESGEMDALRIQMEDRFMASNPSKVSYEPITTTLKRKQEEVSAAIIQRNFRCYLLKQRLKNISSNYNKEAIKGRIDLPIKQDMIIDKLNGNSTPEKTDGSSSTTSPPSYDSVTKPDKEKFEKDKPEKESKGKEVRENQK

Sequence of hNav1.5 (Q14524 whole entry, looked up): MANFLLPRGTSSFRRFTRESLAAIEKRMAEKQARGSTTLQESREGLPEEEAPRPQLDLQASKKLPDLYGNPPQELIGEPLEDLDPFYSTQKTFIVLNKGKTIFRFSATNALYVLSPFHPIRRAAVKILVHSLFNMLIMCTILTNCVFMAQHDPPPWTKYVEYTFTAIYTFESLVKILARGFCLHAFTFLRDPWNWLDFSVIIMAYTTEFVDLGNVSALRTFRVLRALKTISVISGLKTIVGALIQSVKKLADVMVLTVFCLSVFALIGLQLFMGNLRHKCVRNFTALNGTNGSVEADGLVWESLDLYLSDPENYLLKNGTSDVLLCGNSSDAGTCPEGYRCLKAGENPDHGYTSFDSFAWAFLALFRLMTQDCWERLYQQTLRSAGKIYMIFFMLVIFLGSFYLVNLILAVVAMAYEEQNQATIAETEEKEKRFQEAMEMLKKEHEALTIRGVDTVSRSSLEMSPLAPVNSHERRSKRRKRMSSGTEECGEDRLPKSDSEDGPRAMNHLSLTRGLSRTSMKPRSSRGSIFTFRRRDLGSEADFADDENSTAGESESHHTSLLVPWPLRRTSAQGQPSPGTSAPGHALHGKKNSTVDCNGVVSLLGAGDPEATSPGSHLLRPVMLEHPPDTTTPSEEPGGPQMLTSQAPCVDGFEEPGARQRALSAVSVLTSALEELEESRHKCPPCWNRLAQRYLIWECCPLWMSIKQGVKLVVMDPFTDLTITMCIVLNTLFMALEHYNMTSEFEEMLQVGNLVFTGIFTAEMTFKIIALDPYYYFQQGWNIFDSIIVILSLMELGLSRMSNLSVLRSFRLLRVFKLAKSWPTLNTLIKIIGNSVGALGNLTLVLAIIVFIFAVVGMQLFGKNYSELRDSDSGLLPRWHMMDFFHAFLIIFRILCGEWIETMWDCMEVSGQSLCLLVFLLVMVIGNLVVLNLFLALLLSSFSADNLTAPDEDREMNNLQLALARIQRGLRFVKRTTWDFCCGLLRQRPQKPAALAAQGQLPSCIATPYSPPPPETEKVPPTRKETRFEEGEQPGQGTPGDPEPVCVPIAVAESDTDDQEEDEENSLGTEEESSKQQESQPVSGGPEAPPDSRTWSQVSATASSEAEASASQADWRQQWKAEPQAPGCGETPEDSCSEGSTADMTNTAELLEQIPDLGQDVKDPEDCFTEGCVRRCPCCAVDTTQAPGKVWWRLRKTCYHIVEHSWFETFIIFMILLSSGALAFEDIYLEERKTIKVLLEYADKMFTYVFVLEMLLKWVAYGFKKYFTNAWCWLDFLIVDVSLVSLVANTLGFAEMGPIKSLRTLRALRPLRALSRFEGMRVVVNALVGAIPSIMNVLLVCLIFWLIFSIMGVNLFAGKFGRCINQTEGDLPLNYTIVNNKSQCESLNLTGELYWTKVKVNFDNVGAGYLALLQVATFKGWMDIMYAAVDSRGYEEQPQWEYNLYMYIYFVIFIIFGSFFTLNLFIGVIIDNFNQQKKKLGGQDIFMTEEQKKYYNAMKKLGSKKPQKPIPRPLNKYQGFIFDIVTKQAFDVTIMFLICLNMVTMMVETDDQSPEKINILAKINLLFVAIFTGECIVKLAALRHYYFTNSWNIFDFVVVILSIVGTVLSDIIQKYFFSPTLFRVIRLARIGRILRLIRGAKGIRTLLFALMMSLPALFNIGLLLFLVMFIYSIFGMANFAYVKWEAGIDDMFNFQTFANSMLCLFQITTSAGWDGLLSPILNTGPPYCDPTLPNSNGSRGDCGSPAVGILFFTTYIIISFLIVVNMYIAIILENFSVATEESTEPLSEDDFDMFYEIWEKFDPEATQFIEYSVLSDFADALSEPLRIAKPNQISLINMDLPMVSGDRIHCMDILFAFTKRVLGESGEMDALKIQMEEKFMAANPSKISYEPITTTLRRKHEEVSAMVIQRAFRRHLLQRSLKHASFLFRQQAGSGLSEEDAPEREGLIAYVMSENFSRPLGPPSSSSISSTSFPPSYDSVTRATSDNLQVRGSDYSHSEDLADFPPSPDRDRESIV

SMILES | IC50 (hNav1.7) [nM] | IC50 (hNav1.5) [µM] | IC50 (hNav1.3) [nM]
CC[C@H](C)[C@@H]1NC(=O)[C@@H]2CSSC[C@@H]3NC(=O)[C@H](C(C)C)NC(=O)[C@H](CC(C)C)NC(=O)[C@H](CC(N)=O)NC(=O)[C@@H]4CCCN4C(=O)[C@H](CCCNC(=N)N)NC(=O)[C@H](CSSC[C@H](NC(=O)[C@@H](N)CC(=O)O)C(=O)N[C@@H](CC(C)C)C(=O)NCC(=O)N[C@@H](C)C(=O)N[C@@H](CCSC)C(=O)N[C@@H](CCCNC(=N)N)C(=O)N[C@@H](CCCCN)C(=O)N2)NC(=O)[C@H](CSSC[C@@H](C(=O)N[C@@H](CCCCN)C(=O)N[C@@H](Cc2ccc(O)cc2)C(=O)N[C@@H](Cc2c[nH]c4ccccc24)C(=O)N[C@@H](Cc2ccccc2)C(N)=O)NC(=O)[C@H](Cc2c[nH]c4ccccc24)NC(=O)[C@H](CCCCN)NC(=O)[C@H](Cc2c[nH]cn2)NC(=O)[C@H]([C@@H](C)O)NC(=O)[C@H](CCCNC(=N)N)NC(=O)[C@H](CO)NC3=O)NC(=O)[C@H](CCCCN)NC(=O)[C@H](CC(=O)O)NC(=O)[C@H](CC(N)=O)NC(=O)[C@H](CC(=O)O)NC(=O)[C@@H]2CCCN2C1=O [[Ala5;Trp33]GpTx-1(1-34)] (H-DCLGAMRKCIPDNDKCCRPNLVCSRTHKWCKYWF-NH2; disulfide 2-17, 9-23, 16-30) | 34 | > 10 | 569
CC[C@H](C)[C@@H]1NC(=O)[C@@H]2CSSC[C@@H]3NC(=O)[C@H](C(C)C)NC(=O)[C@H](CC(C)C)NC(=O)[C@H](CC(N)=O)NC(=O)[C@@H]4CCCN4C(=O)[C@H](CCCNC(=N)N)NC(=O)[C@H](CSSC[C@H](NC(=O)[C@@H](N)CC(=O)O)C(=O)N[C@@H](CC(C)C)C(=O)NCC(=O)N[C@@H](C)C(=O)N[C@@H](Cc4cccc5ccccc45)C(=O)N[C@@H](CCCNC(=N)N)C(=O)N[C@@H](CCCCN)C(=O)N2)NC(=O)[C@H](CSSC[C@@H](C(=O)N[C@@H](CCCCN)C(=O)N[C@@H](Cc2ccc(O)cc2)C(=O)N[C@H](C(=O)N[C@@H](Cc2ccccc2)C(N)=O)C(C)C)NC(=O)[C@H](Cc2c[nH]c4ccccc24)NC(=O)[C@H](CCCCN)NC(=O)[C@H](Cc2cnc[nH]2)NC(=O)[C@H]([C@@H](C)O)NC(=O)[C@H](CCCNC(=N)N)NC(=O)[C@H](CO)NC3=O)NC(=O)[C@H](CCCCN)NC(=O)[C@H](CC(=O)O)NC(=O)[C@H](CC(N)=O)NC(=O)[C@H](CC(=O)O)NC(=O)[C@@H]2CCCN2C1=O [[Ala5;1-Nal6]GpTx-1(1-34)] | 2 | 3.81 | 8
CC[C@H](C)[C@@H]1NC(=O)[C@@H]2CSSC[C@@H]3NC(=O)[C@H](C(C)C)NC(=O)[C@H](CC(C)C)NC(=O)[C@H](CC(N)=O)NC(=O)[C@@H]4CCCN4C(=O)[C@H](CCCNC(=N)N)NC(=O)[C@H](CSSC[C@H](NC(=O)[C@@H](N)CC(=O)O)C(=O)N[C@@H](CC(C)C)C(=O)NCC(=O)N[C@@H](Cc4ccccc4)C(=O)N[C@@H](CCSC)C(=O)N[C@@H](CCCNC(=N)N)C(=O)N[C@@H](CCCCN)C(=O)N2)NC(=O)[C@H](CSSC[C@@H](C(=O)N[C@@H](CCCCN)C(=O)N[C@@H](Cc2cn(C)c4ccccc24)C(=O)N[C@H](C(=O)N[C@@H](Cc2ccccc2)C(N)=O)C(C)C)NC(=O)[C@H](Cc2c[nH]c4ccccc24)NC(=O)[C@H](CCCCN)NC(=O)[C@H](Cc2c[nH]cn2)NC(=O)[C@H]([C@@H](C)O)NC(=O)[C@H](CCCNC(=N)N)NC(=O)[C@H](CO)NC3=O)NC(=O)[C@H](CCCCN)NC(=O)[C@H](CC(=O)O)NC(=O)[C@H](CC(N)=O)NC(=O)[C@H](CC(=O)O)NC(=O)[C@@H]2CCCN2C1=O [[1′NMeW32]GpTx-1(1-34)] (H-DCLGFMRKCIPDNDKCCRPNLVCSRTHKWCK[Trp(1-Me)]VF-NH2; disulfide 2-17, 9-23, 16-30) | 6 | 6.85 | 18
CC[C@H](C)[C@H](NC(=O)[C@H](Cc1ccc(O)cc1)NC(=O)[C@H](CCCCN)NC(=O)[C@@H]1CSSC[C@@H]2NC(=O)[C@H](CCCCN)NC(=O)[C@H](CC(=O)O)NC(=O)[C@H](CC(N)=O)NC(=O)[C@H](CC(=O)O)NC(=O)[C@@H]3CCCN3C(=O)[C@H]([C@@H](C)CC)NC(=O)[C@@H]3CSSC[C@H](NC(=O)[C@H](C(C)C)NC(=O)[C@H](CC(C)C)NC(=O)[C@H](CC(N)=O)NC(=O)[C@@H]4CCCN4C(=O)[C@H](CCCNC(=N)N)NC(=O)[C@H](CSSC[C@H](NC(=O)[C@@H](N)CC(=O)O)C(=O)N[C@@H](CC(C)C)C(=O)NCC(=O)N[C@@H](Cc4ccccc4)C(=O)N[C@@H](CCSC)C(=O)N[C@@H](CCCNC(=N)N)C(=O)N[C@@H](CCCCN)C(=O)N3)NC2=O)C(=O)N[C@@H](CO)C(=O)N[C@@H](CCCNC(=N)N)C(=O)N[C@@H]([C@@H](C)O)C(=O)N[C@@H](Cc2c[nH]cn2)C(=O)N[C@@H](CCCCN)C(=O)N[C@@H](Cc2c[nH]c3ccccc23)C(=O)N1)C(=O)N[C@@H](Cc1ccccc1)C(N)=O [[Ile33]GpTx-1(1-34)] (H-DCLGFMRKCIPDNDKCCRPNLVCSRTHKWCKYIF-NH2; disulfide 2-17, 9-23, 16-30) | 37 | > 10 | 102
CC[C@H](C)[C@@H]1NC(=O)[C@@H]2CSSC[C@@H]3NC(=O)[C@H](C(C)C)NC(=O)[C@H](CC(C)C)NC(=O)[C@H](CC(N)=O)NC(=O)[C@@H]4CCCN4C(=O)[C@H](CCCNC(=N)N)NC(=O)[C@H](CSSC[C@H](NC(=O)[C@@H](N)CC(=O)O)C(=O)N[C@@H](CC(C)C)C(=O)NCC(=O)N[C@@H](Cc4ccccc4)C(=O)N[C@@H](CCSC)C(=O)N[C@@H](CCCNC(=N)N)C(=O)N[C@@H](CCCCN)C(=O)N2)NC(=O)[C@H](CSSC[C@@H](C(=O)N[C@@H](CCCCN)C(=O)N[C@@H](Cc2ccc(O)cc2)C(=O)N[C@H](C(=O)N[C@@H](Cc2ccccc2)C(N)=O)C(C)C)NC(=O)[C@H](Cc2c[nH]c4ccccc24)NC(=O)[C@H](CCCCN)NC(=O)[C@H](Cc2cnc[nH]2)NC(=O)[C@H](CC(C)C)NC(=O)[C@H](CCCNC(=N)N)NC(=O)[C@H](CO)NC3=O)NC(=O)[C@H](CCCCN)NC(=O)[C@H](CC(=O)O)NC(=O)[C@H](CC(N)=O)NC(=O)[C@H](CC(=O)O)NC(=O)[C@@H]2CCCN2C1=O [[Leu26]GpTx-1(1-34)] (H-DCLGFMRKCIPDNDKCCRPNLVCSRLHKWCKYVF-NH2; disulfide 2-17, 9-23, 16-30) | 3 | 5.01 | 23
CC[C@H](C)[C@@H]1NC(=O)[C@@H]2CSSC[C@@H]3NC(=O)[C@H](C(C)C)NC(=O)[C@H](CC(C)C)NC(=O)[C@H](CC(N)=O)NC(=O)[C@@H]4CCCN4C(=O)[C@H](CCCNC(=N)N)NC(=O)[C@H](CSSC[C@H](NC(=O)[C@@H](N)CC(=O)O)C(=O)N[C@@H](CC(C)C)C(=O)NCC(=O)N[C@@H](C)C(=O)N[C@@H](CCSC)C(=O)N[C@@H](CCCNC(=N)N)C(=O)N[C@@H](CCCCN)C(=O)N2)NC(=O)[C@H](CSSC[C@@H](C(=O)N[C@@H](CCCCN)C(=O)N[C@@H](Cc2c[nH]c4ccccc24)C(=O)N[C@H](C(=O)N[C@@H](Cc2ccccc2)C(N)=O)C(C)C)NC(=O)[C@H](Cc2c[nH]c4ccccc24)NC(=O)[C@H](CCCCN)NC(=O)[C@H](Cc2c[nH]cn2)NC(=O)[C@H]([C@@H](C)O)NC(=O)[C@H](CCCNC(=N)N)NC(=O)[C@H](CO)NC3=O)NC(=O)[C@H](CCCCN)NC(=O)[C@H](CC(=O)O)NC(=O)[C@H](CC(N)=O)NC(=O)[C@H](CC(=O)O)NC(=O)[C@@H]2CCCN2C1=O [[Ala5;Trp32]GpTx-1(1-34)] (H-DCLGAMRKCIPDNDKCCRPNLVCSRTHKWCKWVF-NH2; disulfide 2-17, 9-23, 16-30) | 103 | > 10 | 2980
CC[C@H](C)[C@@H]1NC(=O)[C@@H]2CSSC[C@@H]3NC(=O)[C@H](C(C)C)NC(=O)[C@H](CC(C)C)NC(=O)[C@H](CC(N)=O)NC(=O)[C@@H]4CCCN4C(=O)[C@H](Cc4c[nH]c5ccccc45)NC(=O)[C@H](CSSC[C@H](NC(=O)[C@@H](N)CC(=O)O)C(=O)N[C@@H](CC(C)C)C(=O)NCC(=O)N[C@@H](Cc4ccccc4)C(=O)N[C@@H](CCSC)C(=O)N[C@@H](CCCNC(=N)N)C(=O)N[C@@H](CCCCN)C(=O)N2)NC(=O)[C@H](CSSC[C@@H](C(=O)N[C@@H](CCCCN)C(=O)N[C@@H](Cc2ccc(O)cc2)C(=O)N[C@H](C(=O)N[C@@H](Cc2ccccc2)C(N)=O)C(C)C)NC(=O)[C@H](Cc2c[nH]c4ccccc24)NC(=O)[C@H](CCCCN)NC(=O)[C@H](Cc2c[nH]cn2)NC(=O)[C@H]([C@@H](C)O)NC(=O)[C@H](CCCNC(=N)N)NC(=O)[C@H](CO)NC3=O)NC(=O)[C@H](CCCCN)NC(=O)[C@H](CC(=O)O)NC(=O)[C@H](CC(N)=O)NC(=O)[C@H](CC(=O)O)NC(=O)[C@@H]2CCCN2C1=O [[Trp18]GpTx-1(1-34)] (H-DCLGFMRKCIPDNDKCCWPNLVCSRTHKWCKYVF-NH2; disulfide 2-17, 9-23, 16-30) | 24 | > 10 | 42
CC[C@H](C)[C@@H]1NC(=O)[C@@H]2CSSC[C@@H]3NC(=O)[C@H](C(C)C)NC(=O)[C@H](CC(C)C)NC(=O)[C@H](CC(N)=O)NC(=O)[C@@H]4CCCN4C(=O)[C@H](CCCNC(=N)N)NC(=O)[C@H](CSSC[C@H](NC(=O)[C@@H](N)CC(=O)O)C(=O)N[C@@H](CC(C)C)C(=O)NCC(=O)N[C@@H](C)C(=O)N[C@@H](CCSC)C(=O)N[C@@H](CCCNC(=N)N)C(=O)N[C@@H](CCCCN)C(=O)N2)NC(=O)[C@H](CSSC[C@@H](C(=O)N[C@@H](CCCCN)C(=O)N[C@@H](Cc2cccc4ccccc24)C(=O)N[C@H](C(=O)N[C@@H](Cc2ccccc2)C(N)=O)C(C)C)NC(=O)[C@H](Cc2c[nH]c4ccccc24)NC(=O)[C@H](CCCCN)NC(=O)[C@H](Cc2c[nH]cn2)NC(=O)[C@H]([C@@H](C)O)NC(=O)[C@H](CCCNC(=N)N)NC(=O)[C@H](CO)NC3=O)NC(=O)[C@H](CCCCN)NC(=O)[C@H](CC(=O)O)NC(=O)[C@H](CC(N)=O)NC(=O)[C@H](CC(=O)O)NC(=O)[C@@H]2CCCN2C1=O [[Ala5;1-Nal32]GpTx-1(1-34)] (H-DCLGAMRKCIPDNDKCCRPNLVCSRTHKWCK[1Nal]VF-NH2; disulfide 2-17, 9-23, 16-30) | 28 | > 10 | 122

From patent US9340590B2 (priority 2011, dated 2016)
